Experiments:
Arachnoid cell AC07 = experiment: Cell viability, MTT assay; assay type: cell-based; conditions: NF2+/+, 72 hrs
Procedure: (§1) Cells were plated at 3 × 10^3 cells per well in 96-well plates overnight and treated with various concentrations of Pak inhibitors for 72 hours. Cell viability was measured by MTT assay and the half maximal inhibitory concentration (IC50) was calculated.

Benign Ben-Men-1 = experiment: Cell viability, MTT assay; assay type: cell-based; conditions: NF2−/−; 72 hrs; MTT
Procedure: as §1

Benign MN328 = experiment: Cell viability, MTT assay; assay type: cell-based; conditions: NF2+/+
Procedure: as §1

Malignant KT21-MG1 = experiment: Cell viability, MTT assay; assay type: cell-based; conditions: NF2−/−; 72 hrs; MTT
Procedure: as §1

Malignant MN525 = experiment: Cell viability, MTT assay; assay type: cell-based; conditions: NF2+/+
Procedure: as §1

KT21 cells = experiment: Apoptosis, Annexin V positive cells by flow cytometry; assay type: cell-based; conditions: 3 days, vs DMSO
Procedure: For detection of apoptosis, subconfluent cells were plated in 60-mm plate and treated with inhibitors for 3 days. Cells were collected, washed and resuspended in 1x binding buffer with Annexin V-EGFP and propidium iodide (BioVision, CA) and incubated at room temperature for 5 min in dark. Apoptosis was measured using FACS with collecting 10,000 events per sample.

KT21 or Ben-Men cells = experiment: Immunoblot of signaling pathways; assay type: cell-based
Procedure: Protein concentration was determined, and equal amount of total proteins were separated by SDS-PAGE. […] GAPDH and β-actin were used as loading control.

EGFR (ErbB1) = biological target: T1, EGFR (ErbB1) (Homo sapiens, UniProt P00533); experiment: Kinase selectivity, Z'-LYTE; assay type: biochemical
T1 construct: purchased Invitrogen (Life Technologies) SelectScreen Z'-LYTE
In short: (§2)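 Fluorescence read-out reflects differential proteolytic cleavage of phosphorylated versus non-phosphorylated peptide in a coupled-enzyme format. Reactions use recombinant enzymes with kinase-specific optimized mixtures.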

ERBB2 (HER2) = biological target: T2, ERBB2 (HER2) (Homo sapiens, UniProt P04626); experiment: Kinase selectivity, Z'-LYTE; assay type: biochemical
T2 construct: purchased Invitrogen (Life Technologies) SelectScreen Z'-LYTE
In short: as §2

FGFR2 = biological target: T3, FGFR2 (Homo sapiens, UniProt P21802); experiment: Kinase selectivity, Z'-LYTE; assay type: biochemical
T3 construct: purchased Invitrogen (Life Technologies) SelectScreen Z'-LYTE
In short: as §2

FLT1 (VEGFR1) = biological target: T4, FLT1 (VEGFR1) (Homo sapiens, UniProt P17948); experiment: Kinase selectivity, Z'-LYTE; assay type: biochemical
T4 construct: purchased Invitrogen (Life Technologies) SelectScreen Z'-LYTE
In short: as §2

FLT3 = biological target: T5, FLT3 (Homo sapiens, UniProt P36888); experiment: Kinase selectivity, Z'-LYTE; assay type: biochemical
T5 construct: purchased Invitrogen (Life Technologies) SelectScreen Z'-LYTE
T5 sequence (P36888 27-993): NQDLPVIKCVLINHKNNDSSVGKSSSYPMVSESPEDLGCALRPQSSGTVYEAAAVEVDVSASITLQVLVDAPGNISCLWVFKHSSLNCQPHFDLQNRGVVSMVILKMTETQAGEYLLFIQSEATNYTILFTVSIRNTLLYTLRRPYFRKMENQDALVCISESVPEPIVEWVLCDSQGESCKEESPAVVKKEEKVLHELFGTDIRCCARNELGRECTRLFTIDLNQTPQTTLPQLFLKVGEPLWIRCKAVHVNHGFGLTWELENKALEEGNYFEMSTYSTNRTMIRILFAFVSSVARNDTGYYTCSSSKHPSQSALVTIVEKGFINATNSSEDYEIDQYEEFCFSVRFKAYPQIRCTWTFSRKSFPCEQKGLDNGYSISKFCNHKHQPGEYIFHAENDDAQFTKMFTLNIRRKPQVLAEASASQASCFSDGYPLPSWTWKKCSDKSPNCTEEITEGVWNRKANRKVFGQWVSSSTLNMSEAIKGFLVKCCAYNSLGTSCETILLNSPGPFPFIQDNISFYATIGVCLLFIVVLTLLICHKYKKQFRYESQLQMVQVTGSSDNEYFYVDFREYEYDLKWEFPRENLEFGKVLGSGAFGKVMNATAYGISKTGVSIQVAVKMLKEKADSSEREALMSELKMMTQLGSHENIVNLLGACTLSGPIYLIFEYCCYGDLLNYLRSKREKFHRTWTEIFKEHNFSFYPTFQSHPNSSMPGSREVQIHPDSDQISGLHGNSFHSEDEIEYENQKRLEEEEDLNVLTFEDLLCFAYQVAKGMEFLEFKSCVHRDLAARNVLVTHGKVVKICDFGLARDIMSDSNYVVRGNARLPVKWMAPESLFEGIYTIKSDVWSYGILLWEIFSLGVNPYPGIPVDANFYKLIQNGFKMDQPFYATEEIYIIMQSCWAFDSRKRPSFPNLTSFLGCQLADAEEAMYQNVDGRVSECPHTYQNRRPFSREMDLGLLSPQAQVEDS
In short: as §2

G3K3B (G3K3 beta) = biological target: T6, G3K3B (G3K3 beta) (Homo sapiens, UniProt P49841); experiment: Kinase selectivity, Z'-LYTE; assay type: biochemical
T6 construct: purchased Invitrogen (Life Technologies) SelectScreen Z'-LYTE
T6 sequence (P49841 whole entry): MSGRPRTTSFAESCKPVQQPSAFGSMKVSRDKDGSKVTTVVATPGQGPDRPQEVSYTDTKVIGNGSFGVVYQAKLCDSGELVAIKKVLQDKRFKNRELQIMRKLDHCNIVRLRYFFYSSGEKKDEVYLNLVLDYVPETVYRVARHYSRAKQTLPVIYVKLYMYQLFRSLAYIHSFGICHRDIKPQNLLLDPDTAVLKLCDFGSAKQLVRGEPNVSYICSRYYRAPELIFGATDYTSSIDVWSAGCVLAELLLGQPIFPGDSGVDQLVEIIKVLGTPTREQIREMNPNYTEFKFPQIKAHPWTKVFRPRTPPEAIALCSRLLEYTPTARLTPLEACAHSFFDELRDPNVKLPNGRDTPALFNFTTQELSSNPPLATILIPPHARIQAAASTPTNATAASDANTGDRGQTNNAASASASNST
In short: as §2

INSR = biological target: T7, INSR (Homo sapiens, UniProt P06213); experiment: Kinase selectivity, Z'-LYTE; assay type: biochemical
T7 construct: purchased Invitrogen (Life Technologies) SelectScreen Z'-LYTE
In short: as §2

JAK1 = biological target: T8, JAK1 (Homo sapiens, UniProt P23458); experiment: Kinase selectivity, Z'-LYTE; assay type: biochemical
T8 construct: purchased Invitrogen (Life Technologies) SelectScreen Z'-LYTE
T8 sequence (P23458 whole entry): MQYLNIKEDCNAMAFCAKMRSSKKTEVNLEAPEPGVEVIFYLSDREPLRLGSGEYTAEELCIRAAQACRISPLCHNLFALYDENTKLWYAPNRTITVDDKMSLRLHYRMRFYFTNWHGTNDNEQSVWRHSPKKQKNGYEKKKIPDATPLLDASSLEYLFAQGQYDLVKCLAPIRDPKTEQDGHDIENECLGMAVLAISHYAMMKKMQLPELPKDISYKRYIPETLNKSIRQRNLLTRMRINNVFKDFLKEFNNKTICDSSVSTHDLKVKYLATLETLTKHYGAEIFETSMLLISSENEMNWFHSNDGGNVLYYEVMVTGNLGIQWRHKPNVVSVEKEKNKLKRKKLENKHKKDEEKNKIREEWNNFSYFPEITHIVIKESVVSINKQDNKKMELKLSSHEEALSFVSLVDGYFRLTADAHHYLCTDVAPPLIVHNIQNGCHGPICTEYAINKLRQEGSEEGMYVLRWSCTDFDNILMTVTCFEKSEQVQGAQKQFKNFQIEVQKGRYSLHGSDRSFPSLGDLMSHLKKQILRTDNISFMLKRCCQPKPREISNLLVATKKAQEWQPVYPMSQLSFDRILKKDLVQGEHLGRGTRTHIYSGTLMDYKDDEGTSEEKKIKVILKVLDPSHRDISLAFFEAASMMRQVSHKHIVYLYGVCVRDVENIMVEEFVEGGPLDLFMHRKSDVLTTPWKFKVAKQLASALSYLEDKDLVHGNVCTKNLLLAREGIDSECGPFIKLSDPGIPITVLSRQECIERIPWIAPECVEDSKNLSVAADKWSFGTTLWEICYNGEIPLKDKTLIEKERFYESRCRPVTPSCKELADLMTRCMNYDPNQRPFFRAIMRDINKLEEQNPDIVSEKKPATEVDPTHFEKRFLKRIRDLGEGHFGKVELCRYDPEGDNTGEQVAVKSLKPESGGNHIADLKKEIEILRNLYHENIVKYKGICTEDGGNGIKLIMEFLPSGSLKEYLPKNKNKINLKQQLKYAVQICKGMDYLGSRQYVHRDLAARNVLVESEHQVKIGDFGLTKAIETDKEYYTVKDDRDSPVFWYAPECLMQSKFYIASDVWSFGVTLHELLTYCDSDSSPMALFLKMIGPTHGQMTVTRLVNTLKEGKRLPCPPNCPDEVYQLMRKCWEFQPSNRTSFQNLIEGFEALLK
In short: as §2

KIT = biological target: T9, KIT (Homo sapiens, UniProt P10721); experiment: Kinase selectivity, Z'-LYTE; assay type: biochemical
T9 construct: purchased Invitrogen (Life Technologies) SelectScreen Z'-LYTE
In short: as §2

MAPK1 (ERK2) = biological target: T10, MAPK1 (ERK2) (Homo sapiens, UniProt P28482); experiment: Kinase selectivity, Z'-LYTE; assay type: biochemical
T10 construct: purchased Invitrogen (Life Technologies) SelectScreen Z'-LYTE
In short: as §2

MAPK11 (p38 beta) = biological target: T11, MAPK11 (p38 beta) (Homo sapiens, UniProt Q15759); experiment: Kinase selectivity, Z'-LYTE; assay type: biochemical
T11 construct: purchased Invitrogen (Life Technologies) SelectScreen Z'-LYTE
In short: as §2

PDGFRA (PDGFR alpha) = biological target: T12, PDGFRA (PDGFR alpha) (Homo sapiens, UniProt P16234); experiment: Kinase selectivity, Z'-LYTE; assay type: biochemical
T12 construct: purchased Invitrogen (Life Technologies) SelectScreen Z'-LYTE
In short: as §2

ROCK1 = biological target: T13, ROCK1 (Homo sapiens, UniProt Q13464); experiment: Kinase selectivity, Z'-LYTE; assay type: biochemical
T13 construct: purchased Invitrogen (Life Technologies) SelectScreen Z'-LYTE
T13 sequence (Q13464 whole entry): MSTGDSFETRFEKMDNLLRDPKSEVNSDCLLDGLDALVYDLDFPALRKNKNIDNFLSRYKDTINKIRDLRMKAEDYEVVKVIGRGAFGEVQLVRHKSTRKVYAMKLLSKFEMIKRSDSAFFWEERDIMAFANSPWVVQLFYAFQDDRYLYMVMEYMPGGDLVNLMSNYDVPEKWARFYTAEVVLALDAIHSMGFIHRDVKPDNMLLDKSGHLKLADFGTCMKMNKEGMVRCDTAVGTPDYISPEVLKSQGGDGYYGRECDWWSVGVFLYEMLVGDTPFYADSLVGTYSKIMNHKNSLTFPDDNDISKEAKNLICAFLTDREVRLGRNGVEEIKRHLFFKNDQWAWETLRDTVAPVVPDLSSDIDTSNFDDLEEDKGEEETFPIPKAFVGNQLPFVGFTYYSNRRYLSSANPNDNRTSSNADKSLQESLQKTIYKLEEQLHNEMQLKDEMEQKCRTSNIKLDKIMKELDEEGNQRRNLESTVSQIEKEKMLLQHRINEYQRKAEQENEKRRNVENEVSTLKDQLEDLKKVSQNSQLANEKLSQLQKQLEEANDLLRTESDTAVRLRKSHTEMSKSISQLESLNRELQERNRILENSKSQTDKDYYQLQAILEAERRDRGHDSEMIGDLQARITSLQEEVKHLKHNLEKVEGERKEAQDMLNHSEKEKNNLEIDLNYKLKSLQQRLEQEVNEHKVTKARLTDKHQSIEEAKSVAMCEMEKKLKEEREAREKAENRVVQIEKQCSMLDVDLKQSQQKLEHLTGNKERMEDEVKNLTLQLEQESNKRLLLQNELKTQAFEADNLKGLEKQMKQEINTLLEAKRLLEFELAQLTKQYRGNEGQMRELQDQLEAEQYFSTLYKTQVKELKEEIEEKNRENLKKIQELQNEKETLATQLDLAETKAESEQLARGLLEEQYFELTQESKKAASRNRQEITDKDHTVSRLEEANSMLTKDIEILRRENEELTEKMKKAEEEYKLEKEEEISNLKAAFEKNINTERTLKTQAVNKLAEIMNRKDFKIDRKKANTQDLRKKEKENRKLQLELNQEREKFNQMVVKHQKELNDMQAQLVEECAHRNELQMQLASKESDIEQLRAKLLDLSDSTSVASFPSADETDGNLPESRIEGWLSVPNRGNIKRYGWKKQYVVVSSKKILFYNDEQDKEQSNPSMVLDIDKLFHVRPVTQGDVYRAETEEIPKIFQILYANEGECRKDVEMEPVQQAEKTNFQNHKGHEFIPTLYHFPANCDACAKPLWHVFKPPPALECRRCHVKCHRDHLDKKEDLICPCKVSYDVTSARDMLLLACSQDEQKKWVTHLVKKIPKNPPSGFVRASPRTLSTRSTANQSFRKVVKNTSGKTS
In short: as §2

RP88KA8 (RSK2) = biological target: T14, RP88KA8 (RSK2) (Homo sapiens, UniProt P51812); experiment: Kinase selectivity, Z'-LYTE; assay type: biochemical
T14 construct: purchased Invitrogen (Life Technologies) SelectScreen Z'-LYTE
T14 sequence (P51812 whole entry): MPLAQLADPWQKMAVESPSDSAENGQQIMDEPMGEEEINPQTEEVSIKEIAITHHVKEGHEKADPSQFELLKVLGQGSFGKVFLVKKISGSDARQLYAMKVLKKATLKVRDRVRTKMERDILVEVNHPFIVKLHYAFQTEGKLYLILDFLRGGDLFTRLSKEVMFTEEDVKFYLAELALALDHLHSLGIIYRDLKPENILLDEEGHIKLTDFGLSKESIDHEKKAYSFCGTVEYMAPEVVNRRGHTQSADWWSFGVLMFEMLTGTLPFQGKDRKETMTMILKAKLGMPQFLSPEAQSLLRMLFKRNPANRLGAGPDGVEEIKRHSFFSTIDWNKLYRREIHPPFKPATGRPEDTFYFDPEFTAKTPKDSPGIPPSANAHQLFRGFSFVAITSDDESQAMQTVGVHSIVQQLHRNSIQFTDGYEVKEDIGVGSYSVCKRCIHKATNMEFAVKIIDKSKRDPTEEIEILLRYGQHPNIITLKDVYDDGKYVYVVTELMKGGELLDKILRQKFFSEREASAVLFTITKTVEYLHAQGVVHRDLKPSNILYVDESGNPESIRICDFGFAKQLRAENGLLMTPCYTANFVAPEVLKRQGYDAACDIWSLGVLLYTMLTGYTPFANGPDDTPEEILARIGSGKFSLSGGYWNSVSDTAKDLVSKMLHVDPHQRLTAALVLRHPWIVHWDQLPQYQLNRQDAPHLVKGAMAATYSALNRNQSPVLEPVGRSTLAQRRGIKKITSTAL
In short: as §2

RP88KB1 (p70S6K) = biological target: T15, RP88KB1 (p70S6K) (Homo sapiens, UniProt P23443); experiment: Kinase selectivity, Z'-LYTE; assay type: biochemical
T15 construct: purchased Invitrogen (Life Technologies) SelectScreen Z'-LYTE
In short: as §2

TEK (Tie2) = biological target: T16, TEK (Tie2) (Homo sapiens, UniProt Q02763); experiment: Kinase selectivity, Z'-LYTE; assay type: biochemical
T16 construct: purchased Invitrogen (Life Technologies) SelectScreen Z'-LYTE
T16 sequence (Q02763 23-1124): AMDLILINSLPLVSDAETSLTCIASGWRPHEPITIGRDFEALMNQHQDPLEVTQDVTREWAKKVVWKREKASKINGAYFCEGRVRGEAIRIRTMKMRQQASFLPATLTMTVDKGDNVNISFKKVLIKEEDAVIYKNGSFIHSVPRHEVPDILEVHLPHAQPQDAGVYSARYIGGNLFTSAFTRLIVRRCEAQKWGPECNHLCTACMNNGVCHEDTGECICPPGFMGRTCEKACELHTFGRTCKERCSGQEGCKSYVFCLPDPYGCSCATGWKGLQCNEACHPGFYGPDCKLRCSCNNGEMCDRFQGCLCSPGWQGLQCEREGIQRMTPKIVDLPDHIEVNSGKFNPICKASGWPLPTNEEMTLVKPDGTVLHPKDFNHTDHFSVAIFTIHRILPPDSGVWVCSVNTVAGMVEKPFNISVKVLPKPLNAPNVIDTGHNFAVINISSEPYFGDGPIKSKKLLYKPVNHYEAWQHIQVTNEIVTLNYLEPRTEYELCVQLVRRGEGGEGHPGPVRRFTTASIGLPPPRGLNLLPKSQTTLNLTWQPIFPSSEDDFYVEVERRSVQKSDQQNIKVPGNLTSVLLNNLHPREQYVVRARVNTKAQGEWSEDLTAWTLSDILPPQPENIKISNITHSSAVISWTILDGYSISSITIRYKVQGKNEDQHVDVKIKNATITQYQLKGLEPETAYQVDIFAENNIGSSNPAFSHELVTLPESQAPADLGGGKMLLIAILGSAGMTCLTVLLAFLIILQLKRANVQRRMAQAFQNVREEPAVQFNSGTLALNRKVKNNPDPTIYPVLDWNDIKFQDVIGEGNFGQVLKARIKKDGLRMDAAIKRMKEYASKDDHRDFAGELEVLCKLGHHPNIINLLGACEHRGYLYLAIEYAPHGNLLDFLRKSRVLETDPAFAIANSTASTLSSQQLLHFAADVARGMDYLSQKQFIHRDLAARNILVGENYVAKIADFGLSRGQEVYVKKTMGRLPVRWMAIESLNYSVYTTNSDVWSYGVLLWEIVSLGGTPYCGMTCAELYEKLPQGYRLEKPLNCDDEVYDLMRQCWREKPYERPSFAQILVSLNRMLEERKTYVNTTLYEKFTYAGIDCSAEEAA
In short: as §2

TYK2 = biological target: T17, TYK2 (Homo sapiens, UniProt P29597); experiment: Kinase selectivity, Z'-LYTE; assay type: biochemical
T17 construct: purchased Invitrogen (Life Technologies) SelectScreen Z'-LYTE
In short: as §2

[1] = inhibitors at IC50 concentration

Compound | IC50 (Arachnoid cell AC07) [nM] | IC50 (Benign Ben-Men-1) [nM] | IC50 (Benign MN328; 72 hrs) [nM] | IC50 (Malignant KT21-MG1) [nM] | IC50 (Malignant MN525; 72 hrs) [nM] | number of apoptotic cells (KT21 cells) | phosphorylation of Pak and Mek1 (at Ser298) (KT21 or Ben-Men cells; [1]) | % inhibition of activity (EGFR (ErbB1)) [%] | % inhibition of activity (ERBB2 (HER2)) [%] | % inhibition of activity (FGFR2) [%] | % inhibition of activity (FLT1 (VEGFR1)) [%] | % inhibition of activity (FLT3) [%] | % inhibition of activity (G3K3B (G3K3 beta)) [%] | % inhibition of activity (INSR) [%] | % inhibition of activity (JAK1) [%] | % inhibition of activity (KIT) [%] | % inhibition of activity (MAPK1 (ERK2)) [%] | % inhibition of activity (MAPK11 (p38 beta)) [%] | % inhibition of activity (PDGFRA (PDGFR alpha)) [%] | % inhibition of activity (ROCK1) [%] | also measured
CCn1c(=O)c(-c2ccc(-c3cncc(C)n3)cc2Cl)cc2cnc(NCCC3CCN(C)CC3)nc21 [Frax1036] | 1240 | 1890 | 4240 | 1990 | 3300 | substantial increase | nearly abolished | 2 | 2 | 15 | 14 | 10 | 0 | 0 | 1 | 32 | 5 | 6 | 2 | −2 | % inhibition of activity (RP88KA8 (RSK2)): 11%; % inhibition of activity (RP88KB1 (p70S6K)): 10%; % inhibition of activity (TEK (Tie2)): 2%; % inhibition of activity (TYK2): 6%
Cc1nc(Nc2[nH]nc3c2CN(C(=O)N[C@H](CN(C)C)c2ccccc2)C3(C)C)c2sccc2n1 [PF3758309, reference compound] | 1380 | 29.2 | 3420 | 376 | 5320 | substantial increase | dramatically inhibited | 4 | 4 | 72 | 5 | 78 | 77 | 7 | 2 | 7 | 23 | 8 | 2 | 5 | IC50 (Benign MN328; 72 h): 3400 nM; IC50 (Malignant MN525; 72 h): 5300 nM; activity of Akt (KT21 or Ben-Men cells; either cell type): did not influence; Erk activity (KT21 or Ben-Men cells; [1]): decrease; % inhibition of activity (RP88KA8 (RSK2)): 100%; % inhibition of activity (RP88KB1 (p70S6K)): 79%; % inhibition of activity (TEK (Tie2)): 0%; % inhibition of activity (TYK2): 14%
CCn1c(=O)c(-c2ccc(-c3noc(C)n3)cc2Cl)cc2cnc(Nc3ccc(C4CCN(C)CC4)cc3)nc21 [Frax716] | 288 | 218 | 718 | 1100 | 494 | substantial increase | dramatically inhibited | 20 | 8 | 60 | 37 | 92 | 14 | 14 | 1 | 77 | 7 | 2 | 95 | 2 | % inhibition of activity (RP88KA8 (RSK2)): 6%; % inhibition of activity (RP88KB1 (p70S6K)): 1%; % inhibition of activity (TEK (Tie2)): 98%; % inhibition of activity (TYK2): 54%
